# Laboratory results from paper PMC7449455 (PLoS Neglected Tropical Diseases, 2020).
# Entries after “also recorded” stand apart in the source; their conditions may differ. Counter-ions that a name gives are not always drawn.
# Experiments:
# L. major [1] = experiment: L. major ex vivo lymph node explant culture (EVC), luminometry; type: cell-based, Leishmania major; conditions: 48 h at 34°C, luminescence
# Procedure: An ex vivo explant culture (EVC) used in multiple experiments was obtained as previously described. Briefly, the mice were inoculated on the snout and rump with 10^7 metacyclic promastigotes of L. major-LUC. At 3 weeks post-infection (p.i.), the draining lymph nodes (retropharyngeal and sub-iliac) of infected animals were aseptically removed, infiltrated with 2 mg/mL of collagenase D (Roche) and incubated for 30 minutes at 37°C [21]. The cell suspension was washed in DMEM, and re-suspended in 2X supplemented culture medium, composed of DMEM (Cellgro), 10% heat-inactivated FBS (Atlanta Biologicals, Lawrenceville, GA), 2 mM Sodium pyruvate (Sigma, St. Louis MO), 2X MEM amino acids solution (Sigma), and 20 mM HEPES buffer (Cellgro). The EVC 100,000-cell suspension in 100 μL was dispensed in white luminometry plates (Costar) and exposed to 2-fold serial dilutions of 2X H1RAs in 100 μL DMEM (plain culture medium).
# (§1) Cells exposed to compounds were lysed and the luciferase signal read in a plate luminometer (FLUOstar Omega, BMG Labtech) after adding 100 μL of luciferin substrate (Promega). The percentage of parasite inhibition compared with the vehicle control was calculated as = 100 - [(parasite counts in treated cells/parasite counts in vehicle wells) x 100]. The EC50 was determined by regression analysis using GraphPad (Prism 5.0) and the mean and standard error from three different experiments was utilized to estimate the final EC50. The anti-leishmanial efficacy of compounds was evaluated using L. major-LUC promastigotes in the logarithmic phase of growth (4 days). The parasites were grown in M199 supplemented with 20% FBS, 0.1% hemin and 10 mM adenine. Then, L. major was harvested and exposed to serial 2-fold dilutions of the compounds in a 100μL volume (10^6 promastigotes/mL) in 96-well white plates. After 48 h at 28°C incubation, the parasites were pelleted by centrifugation, lysed and 100 μL of luciferin substrate was added (Promega). The luciferase signal was read as described above.
# [2] = Cytotoxicity in HepG2 cells (CellTiter-Glo); type: cell-based; conditions: human, HepG2 cell line, ATP quantification
# Procedure: (§2) To determine compound toxicity we used the HepG2 cell line (human hepatocellular carcinoma, ATCC HB-8065) as a widely used cell-based assay. The cells were maintained in MEM (Gibco) supplemented with 5% heat-inactivated FBS, 1 mM Sodium pyruvate (Gibco) and 1X MEM amino acids solution (Sigma). Briefly, cells were added to white-bottomed 96-well plates containing 100 μL of serial 2-fold dilutions of the H1RAs. After 24 hours of culture at 37 °C, the percentage of viable cells was determined by ATP quantification using the CellTiter-Glo luminescent Cell Viability Assay (Promega) according to the manufacturer’s instructions. […] At least three different assays were carried out to determine the IVTI of each compound, which was calculated as the ratio between the CC50 obtained in the HepG2 cell line and the EC50 determined in the L. major EVC [21]. To evaluate the cytotoxicity of AZ and FX in peritoneal macrophages, adherent cells obtained from peritoneal lavage of naïve mice (10,000/well) were exposed during 24 hours at 37°C to serial drug concentrations (0.09 μM—200 μM). Cell viability was determined by CellTiter-Glo (Promega).
# [3] = system: h1r, il-1ẞ, IL-6 expression; experiment: Gene expression by qPCR in L. major ex vivo lymph node explant culture; type: cell-based, mouse; conditions: EVC; for expression of H1R / expression of IL-1ẞ: quantitative PCR
# Procedure: After 48 h of ex vivo treatments, the samples were lysed in 10 μL of IGEPAL lysis buffer (10 mM Tris-HCL ph7.4 + 0.3% IGEPAL, 0.1% BSA + 150 mM NaCl and 1,500 cells/μL) and reverse transcribed (High-Capacity cDNA Reverse Transcription Kit, ThermoFisher Sci.). Mouse h1r, il-1ẞ, and Leishmania 18s genes were amplified by qPCR using the following primers: mouse h1r: Fw- […]; Rev-[…] (PrimerBank database; ID and 31542963a1); Mouse il-1β: Fw- […]; Rev- […]); Leishmania 18s: Fw-[…]; Rev- […] [28]. Amplicons were detected with SYBR. The fold change of gene expression was estimated by the delta CT method using the host cell 18s as reference gene. The percentage of parasite load was calculated with reference to DMSO controls.
# L. infantum [4] = system: L. infantum; set-up: method as in PMID 31002807, PMID 24905294; conditions: cited from earlier work
# Leishmania mexicana = conditions: alone or in combination with pentostam; cited from earlier work
# L. infantum [5] = system: L. infantum; set-up: method as in PMID 31002807; conditions: infected spleen macrophages from hamsters; cited from earlier work
# L. major [6] = experiment: In vivo efficacy in BALB/c mice infected with L. major-LUC
# Procedure: Mice were infected in the rump with 10^7 opsonized promastigotes of L. major-LUC as we previously described. The animals were treated starting at day 3 p.i. for up to 10 days. AZ (0.0625 and 0.125 mg/mouse) and FX (40 and 80 mg/kg) were dissolved in sterile PBS and administered by intralesional injection (ID) or gavage (PO), respectively. Mice receiving AZ were treated 3 times at 48-hour intervals. Control mice received sterile PBS according to the route used by each H1RAs (ID or PO). Miltefosine was administered orally at doses of 25 mg/kg or 50 mg/kg for 10 days and used as positive control of parasite suppression. The clinical efficacy was assessed by comparing lesion size (LS) after 10 days of treatment compared with the negative vehicle control as described by Grogl et al.. Therefore, percent suppression was defined as [(LS negative control–LS compound) / LS negative control] x 100. A parasite suppression ≥50% compared with the untreated control was considered significant anti-leishmanial activity. Lesion size (area in mm^2 = length x width) was measured using a digital caliper (Mitutoyo; Kawasaki, Japan).
# The parasite burden of individual mice was assessed in vivo at the beginning and end of the experiment using the IVIS Spectrum equipment (Perkin Elmer) by injecting the animals with 1.5 mg luciferin (GoldBio) intradermally at the infection site. The ultrasensitive IVIS camera quantitatively measures the light emitted by the luciferase-transfected L. major upon exposure to the substrate (firefly luciferin). The mice were imaged under deep anesthesia using an isoflurane vaporizer. They were placed in a supine position in the pre-warmed IVIS box and the images were taken exactly 5 minutes after luciferin injection. The analysis was performed after defining a standard region of interest (ROI) over the infection site using the Living Image software (Xenogen Corporation, Almeda, CA). This protocol allowed us to determine the parasite burden in the same animal over multiple time points. Results were expressed in units of photons per second. […] This approach is in accordance with the criteria proposed for Leishmania in deciding when a compound qualifies to progress into ‘lead’ compound identification.
# L. major [7] = experiment: L. major-infected peritoneal macrophages with or without CD3+ T cells, luminometry; type: cell-based, Leishmania major
# Procedure: The anti-leishmanial efficacy of AZ was also evaluated in adherent peritoneal macrophages from naïve mice infected in vitro with L. major promastigotes (1 cell: 10 parasites) during 4 h at 34°C. After washing extracellular parasites, infected cells were transferred to white plates (10,000/well) and exposed to AZ. The effect of T cells on parasite burden of AZ-treated cells was evaluated using CD3T+ cells. These cells were isolated by positive selection with magnetic beads (MojoSort, Biolegend) from the lymph nodes of either uninfected or L. major-infected mice (1 infected macrophage: 2 lymphocytes ratio). Parasite burden was determined after 48 h of culture by luminometry.
# [8] = set-up: method as in PMID 11316966; conditions: daily oral 4 mg for 21 days, chronic idiopathic urticaria; cited from earlier work
# [9] = system: L. major-LUC promastigotes; experiment: L. major-LUC promastigote culture, luminometry; type: cell-based, Leishmania major; conditions: 48 h, compared with concentrations used against intracellular amastigotes
# Procedure: as §1
# [10] = Cytotoxicity in naive mouse peritoneal macrophages (CellTiter-Glo); type: cell-based; conditions: read-out: CC50 (toxicity in peritoneal macrophages)
# Procedure: as §2
# [11] = FX lower-dose regimens (40 mg/kg twice a day or 80 mg/kg once a day)
# [12] = AZ 0.06 mg/mouse intralesional, statistically non-significant
# [13] = AZ 0.125 mg/mouse intralesional x3, luminometry
compound,measurement,setting,value
C[C@@H]1[C@H](O)[C@@H](C)/C=C/C=C/C=C/C=C/C=C/C=C/C=C/[C@H](O[C@@H]2O[C@H](C)[C@@H](O)[C@H](N)[C@@H]2O)C[C@@H]2O[C@](O)(C[C@@H](O)C[C@@H](O)[C@H](O)CC[C@@H](O)C[C@@H](O)CC(=O)O[C@H]1C)C[C@H](O)[C@H]2C(=O)O [Amphotericin B],EC50,"L. major [1]; Leishmania major, 48 h",0.5 ± 0.01 µM
same,CC50 at 24 h,[2],16.3 ± 1.49 µM
CCCCCCCCCCCCCCCCOP(=O)([O-])OCC[N+](C)(C)C [Miltefosine],EC50,"L. major [1]; Leishmania major, 48 h",1.64 ± 0.26 µM
same,CC50 at 24 h,[2],74.9 ± 5.01 µM
CN1CCN2c3ccccc3Cc3ccccc3C2C1 (stereo not shown) [Mianserin],CC50 at 24 h,[2],157 ± 19 µM
CN1CCC(=C2c3ccccc3C=Cc3ccccc32)CC1 [Cyproheptadine],CC50 at 24 h,[2],172 ± 41 µM
NCCc1c[nH]cn1 [histamine],expression of H1R,[3],markedly increased the expression of H1R
same,expression of IL-1ẞ,[3],increased the expression of IL-1ẞ
C(=C\c1ccccc1)/CN1CCN(C(c2ccccc2)c2ccccc2)CC1 [cinnarizine],parasite load in hamster spleen,L. infantum [4],failed to significantly decrease the parasite load
CN/C(=N/CCSCc1nc[nH]c1C)NC#N [cimetidine],treatment efficacy,Leishmania mexicana,effective
CN1CCC(=C2c3ccccc3CC(=O)c3sccc32)CC1 [Ketotifen],EC50,"L. major [1]; Leishmania major, 48 h",11.86 ± 0.1 µM
same,CC50 at 24 h,[2],282 ± 22.9 µM
CN(C)CC[C@@H](c1ccc(Cl)cc1)c1ccccn1 [Dexchlorpheniramine maleate],EC50,"L. major [1]; Leishmania major, 48 h",35.2 ± 6.9 µM
same,CC50 at 24 h,[2],177 ± 16.3 µM
CC(C)(C(=O)O)c1ccc(C(O)CCCN2CCC(C(O)(c3ccccc3)c3ccccc3)CC2)cc1 (stereo not shown) [Fexofenadine],IC50,L. infantum [5],> 100 µM
same,EC50,"L. major [1]; Leishmania major, 48 h",1.5 ± 0.18 µM
same,reduction in lesion size,L. major [6]; FX 40 mg/kg PO twice a day,50%
same,reduction in lesion size,L. major [6]; FX 80 mg/kg PO once a day,37%
same,loss of body weight,L. major [6]; FX 80 mg/kg PO twice a day,≤ 5%
same,reduction in lesion size compared with untreated control,L. major [6]; FX 80 mg/kg PO twice a day,69%
same,reduction in parasite burden at the lesion site,L. major [6]; FX 80 mg/kg PO twice a day,82%
same,reduction in parasite burden in draining lymph nodes,L. major [6]; FX 80 mg/kg PO twice a day,81%
same,clinical side effects,"L. major [6]; FX PO, 80 mg/kg twice a day, listed as FX, 80 mg/kg",no observable side effects; also recorded: no other clinical side effect was found
same,reduction of parasite load in lesions,L. major [6]; [11],up to 59%
same,reduction of parasite load in lymph nodes,L. major [6]; [11],≤ 72%
Cc1ccc(/C(=C\CN2CCCC2)c2ccccn2)cc1 [Triprolidine],EC50,"L. major [1]; Leishmania major, 48 h",11.2 ± 4.2 µM
same,CC50 at 24 h,[2],390 ± 27.9 µM
CN1CCCC(n2nc(Cc3ccc(Cl)cc3)c3ccccc3c2=O)CC1 (stereo not shown) [Azelastine],EC50,"L. major [1]; Leishmania major, 48 h",0.05 ± 0.02 µM
same,decrease of the expression of IL-6,"[3]; qPCR, highly variable",20.1± 21%
same,expression of H1R,[3],significantly inhibited its expression
same,expression of IL-1ẞ,[3],reduced the pro-inflammatory cytokine IL1-ẞ
same,intracellular amastigote suppression,"L. major [7]; 0.5 μM, infected naive mouse peritoneal macrophages, 48 h",positive effect on intracellular amastigote suppression
same,parasite killing with primed T cells from infected mice,"L. major [7]; in presence of AZ, versus macrophages alone or with naive lymphocytes",significantly enhanced parasite killing
same,side effects,[8],lack of side effects
same,suppressive effect against cultured promastigotes,[9],suppressive effect against cultured promastigotes only when used at concentrations 100-fold higher
same,CC50 at 24 h,[10],0.95 µM
same,CC50 at 24 h,[2],45.1 ± 11.2 µM
same,reduction of parasite burden in lymph node,L. major [6]; [12],15%
same,reduction of parasite burden in the lesion,L. major [6]; [12],57%
same,reduction of parasite load in lymph node,L. major [6]; [13],36%
same,reduction of parasite load in the lesion,L. major [6]; [13],87%
same,lesion diminution compared with untreated controls,"L. major [6]; AZ 0.125 mg/mouse, three intralesional injections every other day",52%
same,weight loss or observable side effect,"L. major [6]; AZ intralesional, 0.125 mg/mouse, listed as AZ",no observable side effects; also recorded: None of the mice treated with this compound presented weight loss or any observable side effect
c1ccc2c(c1)Sc1ccccc1N2CC1CN2CCC1CC2 (stereo not shown) [Mequitazine],EC50,L. major [1],4.53 ± 3.9 µM
same,EC50,L. major [1]; listed as mequitazine,< 10 µM
same,CC50 at 24 h,[2],50.3 ± 8.75 µM
CN(C)CCN(Cc1ccc(Cl)cc1)c1ccccn1 [Chloropyramine],EC50,L. major [1],3.87 ± 0.2 µM
same,EC50,L. major [1]; listed as chloropyramine,< 10 µM
same,CC50 at 24 h,[2],140 ± 49.6 µM
